Data as given in paper PMC3849192, “A Simple Method for Assessing Free Brain/Free Plasma Ratios Using an In Vitro Model of the Blood Brain Barrier” (PLoS ONE, 2013).

Assays:
[1] = Fraction unbound brain (fu,br), brain homogenate equilibrium dialysis; details: brain homogenate (10%), 1 µM, equilibrium dialysis 18 hrs at 37°C
Description: The degree of brain binding was assessed by equilibrium dialysis. Brain homogenate (10%) was spiked with test compound at 1 µM in triplicate. […] The plate was then placed in a shaker/incubator to equilibrate for 18 hrs at 37°C. […] After the addition of 50 µl of buffer to the brain homogenate samples, 150 µl of acetonitrile was added to each sample. Finally, 50 µl of water was added to all buffer and brain homogenate samples. The plates were centrifuged and the supernatant analyzed by LC-MS/MS.

[2] = Brain microdialysis, free brain and plasma concentration-time profiles; type: in vivo; details: male, Wistar, sc, rat, 30 µmol/kg s.c., read-out: Cu,br/Cu,pl in microdialysis
Description: Adult male Wistar rats (280–350 g; Harlan, Horst, The Netherlands) were used for the experiments.
Rats were anesthetized using isoflurane 2% and O2. Before the surgery, Fynadine (1 mg/kg s.c.) was administered for analgesia during surgery and recovery. A mixture of Marcaine and adrenaline was used for local anesthesia on the head. Implantation of a microdialysis probe into the brain and a catheter into the right jugular vein was performed in the same surgical procedure. After surgery animals were housed individually (cages 30×30×40 cm), food and water was ad libitum available. Surgery was carried out at least 24 hours before the start of the experiments.
Each animal was placed into a stereotaxic frame (Kopf instruments, USA). A non-metal guide cannula with a MetaQuant probe (MQ 6/4, regenerated cellulose membrane, 4 mm exposed surface, Brainlink, The Netherlands) was implanted with in the prefrontal cortex (PFC), its tip at the following coordinates: AP = 3.4 mm (to bregma), lateral 0.8 mm (to midline), ventral −5.0 mm (to dura) with Toothbar set at −3.3 mm, according to the atlas of Paxinos and Watson (1982). […]
To test whether probe recoveries were sufficiently high to enable quantitative measurements of brain extracellular concentrations in the in vivo microdialysis experiments, each of the compounds was subjected to an in vitro recovery test. […]

fubrain (homog.) Mean [1]: 0.0094
Kp at 30 min ([2]; at 30 min): 0.04
Kp at 240 min ([2]; at 240 min): 1.71
SMILES: CN1CCN(C2=Nc3cc(Cl)ccc3Nc3ccccc32)CC1 [Clozapine]
